Laboratory results reported in patent US7994222B2, “Monitoring of the inhibition of fatty acid synthesis by iodo-nitrobenzamide compounds” (BiPar Sciences, Inc., priority 2006, dated 2011).
Entries after “also recorded” stand apart in the source; their conditions may differ.

Experiments:
[1] = system: OVCAR-3 cells; test: Metabolic flux profiling with [1,2-13C2]-D-glucose tracer in cultured OVCAR-3 cells (GC/MS, MIDA); assay type: cell-based, human
Excerpt: (§1) Goal: This study relates to analyzing the effect of the 3-nitro-4-iodobenzamide (compound of formula III) in vitro on cultured OVCAR-3 cells' and HeLa cells' metabolic fluxes using [1,2-^13C2]-D-glucose as the only source of glucose. The analysis includes correlating fluxes with cell growth-modifying effect, analyzing mechanism of anti-proliferative action and analyzing potential toxicity, selectivity, and efficacy. Target metabolites include glucose (culture medium and pellet glycogen), lactate (culture medium), ^13CO2 (culture medium), C:14 (myristate); C:16 (palmitate); C:18 (stearate); C:18-1 (oleate); C:20; C:22; C:24 (cell pellet), acetyl-CoA synthesis for fatty acids (cell pellet), and RNA ribose and DNA deoxyribose (cell pellet). Target fluxes include glucose uptake from culture media; lactate production from glucose (anaerobic glycolysis); ^13CO2 release from glucose via TCA cycle; glycogen synthesis; de novo fatty acid synthesis, elongation, desaturation and acetyl-CoA synthesis; and pentose cycle-RNA and DNA ribose synthesis via oxidative and non-oxidative reactions.
(§2) Materials & Methods: The tracer for this metabolic profiling study, stable isotope [1, 2-^13C2]-D-glucose, is purchased with >99% purity and 99% isotope enrichment for each position from Cambridge Isotope Laboratories, Inc. (Andover, Mass.).
(§3) Cells & cell culture: OVCAR3 and Hela cells are purchased from American Type Culture Collection (ATCC). The cells are cultured according to instructions obtained from ATCC. The cells are incubated at 37° C., 5% CO2 and 95% humidity and passed by using trypsin 0.25% (Gibco/BRL) no more than ten times after receipt from the ATCC and prior to use in this study.
(§4) Seventy-five percent confluent cultures cells are incubated in [1,2-^13C2]D-glucose-containing media (100 mg/dl total concentration=5 mM; 50% isotope enrichment—i.e. half unlabeled glucose, half labeled with the stable isotope ^13C tracer). […] Control cultures are treated with vehicle only. […] Glucose and lactate levels in the medium are measured using a Cobas Mira chemistry analyzer (Roche Diagnostics, Pleasanton, Calif., USA).
(§5) RNA ribose stable isotope studies: RNA ribose is isolated by acid hydrolysis of cellular RNA after Trizol purification of cell extracts. Total RNA amounts are assessed by spectrophotometric determination, in triplicate cultures. Ribose is derivatized to its aldonitrile acetate form using hydroxylamine in pyridine with acetic anhydride (Supelco, Bellefonte, Pa.) before mass spectral analyses. The ion cluster is monitored around the m/z 256 (carbons 1-5 of ribose) (chemical ionization, CI) and m/z 217 (carbons 3-5 of ribose) and m/z 242 (carbons 1-4 of ribose) (electron impact ionization, EI) to determine molar enrichment and the positional distribution of ^13C in ribose. By convention, the base mass of ^12C-compounds (with their derivatization agents) is given as m0 as measured by mass spectrometry (Boros L G, et al. 2002, Drug Discov. Today 7: 364-372).
(§6) Ribose molecules labeled with a single ^13C atom on the first carbon position (m1) recovered from RNA are used to gauge the ribose fraction produced by direct oxidation of glucose through the G6PD pathway. Ribose molecules labeled with ^13C on the first two carbon positions (m2) are used to measure the fraction produced by transketolase. Doubly labeled ribose molecules (m2 and m4) on the fourth and fifth carbon positions are used to measure molar fraction produced by triose phosphate isomerase and transketolase.
(§7) Lactate: Lactate from the cell culture media (0.2 ml) is extracted by ethylene chloride after acidification with HCL. Lactate is derivatized to its propylamine-heptafluorobutyrate ester form and the m/z 328 (carbons 1-3 of lactate) (chemical ionization, CI) is monitored for the detection of m1 (recycled lactate through the PC) and m2 (lactate produced by the Embden-Meyerhof-Pamas pathway) for the estimation of pentose cycle activity (Lee W N, et al. 1998, Am J Physiol 274: E843-E851). […]

[2] = system: glycogen phosphorylase; settings: in the presence or absence of glucose; human cells; cited from earlier work
[3] = system: HeLa cells; test: Metabolic flux profiling with [1,2-13C2]-D-glucose tracer in cultured HeLa cells (GC/MS, MIDA); assay type: cell-based, human
Excerpt: as §1, §2, §3, §4, §5, §6, §7

[4] = system: tumor tissue; settings: in vivo; cited from earlier work
[5] = system: cancer cells; settings: cancer cells with highly active fatty acid synthesis; cited from earlier work
[6] = cited from earlier work

NC(=O)c1ccc(I)c([N+](=O)[O-])c1 [3-nitro-4-iodobenzamide]
G6PDH and transketolase fluxes for DNA deoxyribose synthesis [1]: target enzymes; also recorded: inhibits
Glycogen synthesis and breakdown via the direct pathway [1]: inhibits
acetyl-CoA contribution from glucose to long chain saturated fatty acids (C:20-C:24) [1]: dose-dependent increase
toxic effects on cell energy production and nucleic acid RNA turnover [1]: no toxic effects
arachidic acid (C:20) synthesis ([1]; 3 and 10 μM, 72 hours, FIGS. 9A and B): inhibit
C:22 fatty acid synthesis ([1]; 3 and 10 μM, 72 hours, FIGS. 10A and B): inhibit
C:24 fatty acid synthesis ([1]; 3 and 10 μM, 72 hours, FIGS. 11A and B): inhibit
cell membrane formation via limited de novo long chain (C:20-C:24) fatty acid synthesis ([1]; mechanism of anti-proliferative action): decreases
glycogen phosphorylase activity [2]: effectively controls
De novo synthesis of arachidic acid (C:20) ([3]; HeLa cells): spared from the inhibitory action
Oxidation of glucose into CO2 and ATP production in the TCA cycle ([3]; HeLa cells): not affected
acetyl-CoA contribution from glucose to long chain saturated fatty acids (C:20-C:24) ([3]; HeLa cells): dose-dependent increase
contribution to acetyl-CoA synthesis from glucose (C:14-C:18 fatty acids) ([3]; HeLa cells): low
substrate (glucose) uptake and activation (phosphorylation) ([3]; HeLa cells): no inhibitory effect
toxic effects on cell energy production, nucleic acid turnover and glycogen synthesis ([3]; HeLa cells): no toxic effects
medium and long chain fatty acid (C:14-C:18) de novo synthesis from glucose ([3]; HeLa cells, dose-responsive): decreased
cell membrane formation via limited de novo fatty acid synthesis ([3]; HeLa cells, mechanism of anti-proliferative action): decreases
Acetyl-CoA enrichment/formation from glucose for arachidic acid synthesis ([3]; HeLa cultures): high and increases
myristate (C:14) synthesis ([3]; Hela cells, 3 and 10 μM, 13C-labeled myristate at 72 hours, FIGS. 3A and B): inhibit
oleate (C:18-1) synthesis ([3]; Hela cells, 3 and 10 μM, 13C-labeled oleate at 72 hours, FIGS. 6A and B): inhibit
palmitate (C:16) synthesis ([3]; Hela cells, 3 and 10 μM, 13C-labeled palmitate at 72 hours, FIGS. 4A and B): inhibit
stearate (C:18) synthesis ([3]; Hela cells, 3 and 10 μM, 13C-labeled stearate at 72 hours, FIGS. 5A and B): inhibit
C:22 fatty acid synthesis ([3]; Hela cells, 3 and 10 μM, 72 hours, FIGS. 7A and B): inhibit
C:24 fatty acid synthesis ([3]; Hela cells, 3 and 10 μM, 72 hours, FIGS. 8A and B): inhibit

C=C1C(=O)OC(CCCCCCCC)C1C(=O)O (stereo not shown) [C75]
anti-tumor activity [4]: anti-tumor activity
fatty acid synthesis in tumor tissue [4]: inhibition

C/C=C/C/C=C/CCC(=O)[C@H]1O[C@H]1C(N)=O [cerulenin]
effect on cancer cells in vitro [5]: cell death by means of apoptosis
in vivo activity [6]: limited in vivo activity
